These results are taken from patent US8871788B2, “Substituted N-alkyl and N-acyl tetrahydro-isoquinoline derivatives, preparation and therapeutic use thereof” (Sanofi, priority 2010, dated 2014).

Assay [1] has as its target T1, rhesus (Macacca Mulatta) H3 receptor (Macaca mulatta, UniProt Q865E1).
T1 construct: 445 amino acid H3 receptor; expressed in transfected cells; host or cells: Flp-In T-REx 293 Cell Line (Invitrogen), pcDNA5/FRT/TO, induced with tetracycline
The assay can be described thus: Rhesus H3 [3H]-Methylhistamine radioligand binding assay (SPA). The arrangement: species or system rhesus monkey (Macacca Mulatta). The following applies: [3H]-Methylhistamine 2 nM, rhesus H3 membranes, Cheng-Prusoff. As for the experimental part: (§1) Rhesus H3 membranes were prepared from the Flp-In T-REx 293 Cell Line (Invitrogen) stably transfected with pcDNA5/FRT/TO (Invitrogen) containing the rhesus monkey (Macacca Mulatta) 445 amino acid H3 receptor. (Genbank #AY231164). Stably transfected cultures were amplified in tissue culture flasks by standard tissue culture methods and induced to express rhesus H3 by exposure to 500 ng/ml tetracycline (Cellgro) for 24 hours. After induction, cells were dissociated from flasks utilizing Cell Stripper (Cellgro). Cells were centrifuged (1K×g, 5 min) and pellet frozen in an ethanol-dry ice bath to disrupt cell membranes. Frozen cell pellet was re-suspended in 5 mM HEPES (pH 7.4, Invitrogen) at 10 ml/1000 cm2 of harvested cells. The cell suspension was drawn through an 18 gauge needle (2-3×) followed by a 23 gauge needle (2-3×) to further disrupt cell membranes. The cell suspension was centrifuged (40K×g, 30 min). Cell membrane pellet was re-suspended in 5 mM HEPES (pH 7.4, Invitrogen) at a final protein concentration of 10 mg/ml. Rhesus H3 membranes were stored under liquid nitrogen prior to use in [3H]-Methylhistamine and GTPγS radioligand binding assays.
(§2) Rhesus H3 radioligand binding assay was performed using rhesus H3 receptor membranes (prepared as described above), [3H]-Methylhistamine (Perkin Elmer) and WGA SPA beads (wheat germ agglutinin scintillation proximity assay) beads (Amersham). The assay was performed in 96-well Opti-Plates (Packard). Each reaction contained 50 μl rhesus H3 membranes (20-30 μg total protein), 50 μl WGA SPA beads (0.1 μg) and 50 μl of 83Ci/mmol [^3H]-Methylhistamine (final concentration 2 nM) and 50 μl of tested compound. The compounds of this invention and/or vehicle were diluted with binding buffer from 10 mM DMSO stocks. Assay plates were sealed with TopSeal (Perkin Elmer) and mixed on shaker (25° C., 1 hour). Assay plates were read on TopCount scintillation counter (Packard). Results were analyzed by Hill transformation and Ki values were determined by Cheng-Prusoff equation. Similar procedure was employed to determine the binding data for rat.

In assay [2] the target is Rat H3 (Rattus norvegicus, UniProt Q9QYN8). Put plainly: Rat H3 radioligand binding (similar procedure). The note with it: rat H3, similar procedure to rhesus binding. The method, then: as §2
Assay [3] concerns the target T2, rhesus H3 (Macaca mulatta, UniProt Q865E1).
T2 construct: 445 amino acid H3 receptor; expressed in transfected cells; host or cells: Flp-In T-REx 293 Cell Line (Invitrogen), pcDNA5/FRT/TO, induced with tetracycline
The assay can be described thus: GTPγS radioligand binding assay, rhesus H3 constitutive functional activity in cell membranes. It is filed as biochemical, rhesus monkey (Macacca Mulatta). The note with it: relative to basal levels. As for the experimental part: as §1

Chain of Rat H3 (Q9QYN8 whole entry): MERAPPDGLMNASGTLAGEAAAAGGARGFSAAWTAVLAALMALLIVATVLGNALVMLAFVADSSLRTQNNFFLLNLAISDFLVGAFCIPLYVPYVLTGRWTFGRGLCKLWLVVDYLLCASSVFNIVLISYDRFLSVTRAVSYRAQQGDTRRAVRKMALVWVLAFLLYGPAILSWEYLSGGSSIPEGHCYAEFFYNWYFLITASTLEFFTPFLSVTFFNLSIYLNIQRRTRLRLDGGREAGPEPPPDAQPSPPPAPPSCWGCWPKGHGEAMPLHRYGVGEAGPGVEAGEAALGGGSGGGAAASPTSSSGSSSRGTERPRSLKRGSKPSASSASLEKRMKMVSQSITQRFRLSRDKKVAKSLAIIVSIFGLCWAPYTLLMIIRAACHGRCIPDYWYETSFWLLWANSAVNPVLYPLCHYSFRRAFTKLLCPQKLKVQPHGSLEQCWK
T2 sequence (Q865E1 1-445): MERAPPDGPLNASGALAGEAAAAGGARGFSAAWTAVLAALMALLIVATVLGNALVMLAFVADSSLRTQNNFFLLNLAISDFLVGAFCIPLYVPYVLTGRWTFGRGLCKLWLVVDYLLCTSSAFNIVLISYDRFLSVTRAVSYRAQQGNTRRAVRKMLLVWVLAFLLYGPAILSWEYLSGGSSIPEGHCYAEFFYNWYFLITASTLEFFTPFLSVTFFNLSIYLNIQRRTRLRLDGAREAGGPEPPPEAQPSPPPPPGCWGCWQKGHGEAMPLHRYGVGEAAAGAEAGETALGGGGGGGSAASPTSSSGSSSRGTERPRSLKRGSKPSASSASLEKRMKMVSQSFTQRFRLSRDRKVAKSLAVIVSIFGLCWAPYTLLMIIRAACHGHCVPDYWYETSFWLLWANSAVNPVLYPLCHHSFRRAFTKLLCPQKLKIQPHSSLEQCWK
T1 sequence (Q865E1 1-445): as above

For the compound `C[C@H]1CCCN1[C@H]1CCN(c2ccc3c(c2)CN(C(=O)C2CCOCC2)CC3)C1` [Example 2, [7-((2S,3′S)-2-Methyl-[1,3′]bipyrrolidinyl-1′-yl)-3,4-dihydro-1H-isoquinolin-2-yl]-(tetrahydro-pyran-4-yl)-methanone], the Ki in assay [1] came to 0.66 nM; in assay [2], 0.91 nM. Also, in assay [3], the “GTPγS-35 ASSAY % Inverse Agonism” value is listed as −25.5%.
The corresponding values for `CCOC(=O)N1CCc2cc(N3CC[C@H](N4CCC[C@@H]4C)C3)ccc2C1` [Example 25, 6-((2S,3′S)-2-Methyl-[1,3′]bipyrrolidinyl-1′-yl)-3,4-dihydro-1H-isoquinoline-2-carboxylic acid ethyl ester] are 1.2 nM, 75 nM and −0.5%.
Consider `C[C@H]1CCCN1[C@H]1CCN(c2ccc3c(c2)CCN(C(=O)C2CCOCC2)C3)C1` [Example 19, [6-((2S,3′S)-2-Methyl-[1,3′]bipyrrolidinyl-1′-yl)-3,4-dihydro-1H-isoquinolin-2-yl]-(tetrahydro-pyran-4-yl)-methanone], for which the inhibitory constant (Ki) in assay [1] was determined as 0.12 nM; in assay [2], 0.22 nM. In assay [3], the “GTPγS-35 ASSAY % Inverse Agonism” value is given as −17.4%.
The corresponding values for `C[C@H]1CCCN1[C@H]1CCN(c2ccc3c(c2)CCN(C(=O)C2CCCC2)C3)C1` [Example 21, Cyclopentyl-[6-((2S,3′S)-2-methyl-[1,3′]bipyrrolidinyl-1′-yl)-3,4-dihydro-1H-isoquinolin-2-yl]-methanone] are 0.15 nM, 0.51 nM and −12.2%.
Consider `C[C@H]1CCCN1[C@H]1CCN(c2ccc3c(c2)CCN(C(=O)c2ccccc2)C3)C1` [Example 16, [6-((2S,3′S)-2-Methyl-[1,3′]bipyrrolidinyl-1′-yl)-3,4-dihydro-1H-isoquinolin-2-yl]-phenyl-methanone], for which the Ki in assay [1] is 0.29 nM; in assay [2], 7.3 nM. In addition, the “GTPγS-35 ASSAY % Inverse Agonism” value in assay [3] is on record as −18.9%.
The corresponding values for `Cc1ccc(S(=O)(=O)N2CCc3cc(N4CC[C@H](N5CCC[C@@H]5C)C4)ccc3C2)cc1` [Example 24, 6-((2S,3′S)-2-Methyl-[1,3′]bipyrrolidinyl-1′-yl)-2-(toluene-4-sulfonyl)-1,2,3,4-tetrahydro-isoquinoline] are 88 nM, 110 nM and −33.2%.
The corresponding values for `C[C@H]1CCCN1[C@H]1CCN(c2ccc3c(c2)CCN(C(=O)c2cc4c(ccn4CCOC[Si](C)(C)C)s2)C3)C1` [Example 20, [6-((2S,3′S)-2-Methyl-[1,3′]bipyrrolidinyl-1′-yl)-3,4-dihydro-1H-isoquinolin-2-yl]-[4-(2-trimethylsilanylmethoxy-ethyl)-4H-thieno[3,2-b]pyrrol-2-yl]-methanone] are 22 nM, 140 nM and −23.0%.
Turning to `C[C@H]1CCCN1[C@H]1CCN(c2ccc3c(c2)CCN(C(=O)c2ccc(F)cc2)C3)C1` [Example 17, (4-Fluoro-phenyl)-[6-((2S,3′S)-2-methyl-[1,3′]bipyrrolidinyl-1′-yl)-3,4-dihydro-1H-isoquinolin-2-yl]-methanone], the values for the Ki in assay [1] and in assay [2] were 0.19 nM and 3.1 nM, respectively. Moreover, the “GTPγS-35 ASSAY % Inverse Agonism” value in assay [3] is reported as −10.4%.
The corresponding values for `C[C@H]1CCCN1[C@H]1CCN(c2ccc3c(c2)CCN(C2CCN(C(=O)OC(C)(C)C)C2)C3)C1` (stereo partly drawn) [Example 6, 3-[6-((2S,3′S)-2-Methyl-[1,3′]bipyrrolidinyl-1′-yl)-3,4-dihydro-1H-isoquinolin-2-yl]-pyrrolidine-1-carboxylic acid tert-butyl ester] are 0.9 nM, 0.74 nM and −24.9%.
Regarding `C[C@H]1CCCN1[C@H]1CCN(c2ccc3c(c2)CCN(Cc2ccc(F)cc2)C3)C1` [Example 9, 2-(4-Fluoro-benzyl)-6-((2S,3′S)-2-methyl-[1,3′]bipyrrolidinyl-1′-yl)-1,2,3,4-tetrahydro-isoquinoline], the Ki in assay [1] amounted to 0.37 nM; in assay [2], 0.19 nM. Besides, in assay [3], the “GTPγS-35 ASSAY % Inverse Agonism” value was −6.2%.
The corresponding values for `C[C@H]1CCCN1[C@H]1CCN(c2ccc3c(c2)CCN(C2CCC(NC(=O)OC(C)(C)C)CC2)C3)C1` (stereo partly drawn) [Example 11, {4-[6-((2S,3′S)-2-Methyl-[1,3′]bipyrrolidinyl-1′-yl)-3,4-dihydro-1H-isoquinolin-2-yl]-cyclohexyl}-carbamic acid tert-butyl ester] are 0.35 nM, 0.31 nM and −7.9%.
The corresponding values for `COc1cccc(NC(=O)N2CCc3cc(N4CC[C@H](N5CCC[C@@H]5C)C4)ccc3C2)c1` [Example 23, 6-((2S,3′S)-2-Methyl-[1,3′]bipyrrolidinyl-1′-yl)-3,4-dihydro-1H-isoquinoline-2-carboxylic acid (3-methoxy-phenyl)-amide] are 11 nM, 280 nM and −22.5%.
As to `C[C@H]1CCCN1[C@H]1CCN(c2ccc3c(c2)CCN(C(=O)c2ccoc2)C3)C1` [Example 15, Furan-3-yl-[6-((2S,3′S)-2-methyl-[1,3′]bipyrrolidinyl-1′-yl)-3,4-dihydro-1H-isoquinolin-2-yl]-methanone], the inhibition constant Ki was found to be 0.22 nM in assay [1] and 2.7 nM in assay [2]. Further, the “GTPγS-35 ASSAY % Inverse Agonism” value in assay [3] is given as −16.8%.
The corresponding values for `C[C@H]1CCCN1[C@H]1CCN(c2ccc3c(c2)CCN(C(=O)c2cccnc2)C3)C1` [Example 14, [6-((2S,3′S)-2-Methyl-[1,3′]bipyrrolidinyl-1′-yl)-3,4-dihydro-1H-isoquinolin-2-yl]-pyridin-3-yl-methanone] are 0.28 nM, 2.6 nM and −17.2%.
The corresponding values for `COc1ccc(C(=O)N2CCc3cc(N4CC[C@H](N5CCC[C@@H]5C)C4)ccc3C2)cc1` [Example 12, (4-Methoxy-phenyl)-[6-((2S,3′S)-2-methyl-[1,3′]bipyrrolidinyl-1′-yl)-3,4-dihydro-1H-isoquinolin-2-yl]-methanone] are 2.8 nM, 6.2 nM and −26.1%.
The corresponding values for `C[C@H]1CCCN1[C@H]1CCN(c2ccc3c(c2)CCN(C(=O)C(c2ccccc2)c2ccccc2)C3)C1` [Example 13, 1-[6-((2S,3′S)-2-Methyl-[1,3′]bipyrrolidinyl-1′-yl)-3,4-dihydro-1H-isoquinolin-2-yl]-2,2-diphenyl-ethanone] are 3.7 nM, 7.7 nM and −16.1%.
For `C[C@H]1CCCN1[C@H]1CCN(c2ccc3c(c2)CCN(Cc2ccc4c(c2)OCCO4)C3)C1` [Example 8, 2-(2,3-Dihydro-benzo[1,4]dioxin-6-ylmethyl)-6-((2S,3′S)-2-methyl-[1,3′]bipyrrolidinyl-1′-yl)-1,2,3,4-tetrahydro-isoquinoline], the values for the Ki in assay [1] and in assay [2] were 0.46 nM and 6.9 nM, respectively. Also, the “GTPγS-35 ASSAY % Inverse Agonism” value in assay [3] is −9.1%.
`CCOC(=O)N1CCC(N2CCc3cc(N4CC[C@H](N5CCC[C@@H]5C)C4)ccc3C2)CC1` [Example 3, 4-[6-((2S,3′S)-2-Methyl-[1,3′]bipyrrolidinyl-1′-yl)-3,4-dihydro-1H-isoquinolin-2-yl]-piperidine-1-carboxylic acid ethyl ester]: the figures for the inhibition constant (Ki) in assay [1] and in assay [2] were 0.38 nM and 0.97 nM, respectively.
`C[C@H]1CCCN1[C@H]1CCN(c2ccc3c(c2)CCN(C2CCOCC2)C3)C1.O=C(O)C(F)(F)F` [Example 4, 6-((2S,3′S)-2-Methyl-[1,3′]bipyrrolidinyl-1′-yl)-2-(tetrahydro-pyran-4-yl)-1,2,3,4-tetrahydro-isoquinoline hydrochloride]: the results for the inhibitory constant (Ki) in assay [1] and in assay [2] were 0.11 nM and 0.05 nM, respectively. For the same compound, the “GTPγS-35 ASSAY % Inverse Agonism” value in assay [3] was −28.0%.
In the case of `COc1cccc(S(=O)(=O)N2CCc3cc(N4CC[C@H](N5CCC[C@@H]5C)C4)ccc3C2)c1.O=C(O)C(F)(F)F` [Example 22, 2-(3-Methoxy-benzenesulfonyl)-6-((2S,3′S)-2-methyl-[1,3′]bipyrrolidinyl-1′-yl)-1,2,3,4-tetrahydro-isoquinoline; compound with trifluoro-acetic acid], the Ki in assay [1] is 25 nM; in assay [2] it was 15 nM. Besides, in assay [3], the “GTPγS-35 ASSAY % Inverse Agonism” value is −27.7%.

For orientation: Ki means a measure of affinity in units of concentration, obtained from inhibition or displacement.
